In this experiment the target is T1, EGFR (ErbB1) (Homo sapiens, UniProt P00533).
T1 construct: purchased Thermo Fisher Scientific (Life Technologies) SelectScreen
The experiment in a line: SelectScreen Z'LYTE. Type of experiment: biochemical. The gist of the method:
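SelectScreen broad panel; activity (Z'LYTE, Adapta) plus binding formats. ATP: Km app for CSF1R Z'LYTE; 10 for CAMK1 Adapta. Readout = % per kinase.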

T1 sequence (P00533 25-1210): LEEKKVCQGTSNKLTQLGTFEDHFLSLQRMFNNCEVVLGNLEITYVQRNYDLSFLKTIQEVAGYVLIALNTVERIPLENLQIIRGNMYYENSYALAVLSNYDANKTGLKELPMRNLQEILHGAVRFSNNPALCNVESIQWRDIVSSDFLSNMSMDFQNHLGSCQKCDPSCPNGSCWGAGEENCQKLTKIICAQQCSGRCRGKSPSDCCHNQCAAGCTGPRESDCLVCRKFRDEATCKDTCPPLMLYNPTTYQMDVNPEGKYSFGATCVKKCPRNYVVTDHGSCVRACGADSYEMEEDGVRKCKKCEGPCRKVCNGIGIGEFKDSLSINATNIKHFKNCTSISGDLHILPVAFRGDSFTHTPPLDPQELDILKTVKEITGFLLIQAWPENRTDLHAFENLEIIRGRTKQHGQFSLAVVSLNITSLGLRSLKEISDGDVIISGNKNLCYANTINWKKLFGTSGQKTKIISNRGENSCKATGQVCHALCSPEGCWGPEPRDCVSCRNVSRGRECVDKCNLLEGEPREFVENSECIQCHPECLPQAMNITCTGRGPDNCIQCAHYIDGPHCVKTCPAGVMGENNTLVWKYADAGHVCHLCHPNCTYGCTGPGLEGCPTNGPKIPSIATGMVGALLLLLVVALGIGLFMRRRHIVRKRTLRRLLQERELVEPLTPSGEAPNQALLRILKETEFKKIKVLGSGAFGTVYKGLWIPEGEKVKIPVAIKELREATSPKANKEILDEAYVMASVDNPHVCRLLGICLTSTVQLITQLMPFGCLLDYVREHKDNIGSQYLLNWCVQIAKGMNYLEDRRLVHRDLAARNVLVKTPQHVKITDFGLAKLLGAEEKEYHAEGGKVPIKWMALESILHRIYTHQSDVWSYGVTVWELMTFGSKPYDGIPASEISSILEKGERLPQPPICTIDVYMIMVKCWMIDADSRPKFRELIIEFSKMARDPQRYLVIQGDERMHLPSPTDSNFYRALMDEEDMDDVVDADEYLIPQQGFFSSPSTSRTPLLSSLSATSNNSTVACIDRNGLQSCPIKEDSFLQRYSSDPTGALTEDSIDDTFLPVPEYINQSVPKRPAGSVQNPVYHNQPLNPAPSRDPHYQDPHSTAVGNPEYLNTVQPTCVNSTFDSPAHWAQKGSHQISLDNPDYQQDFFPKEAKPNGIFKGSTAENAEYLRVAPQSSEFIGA

For `CN(C(=O)CN1CCOCC1)c1ccc2sc3c(-c4cccc5c(=O)cc(N6CC7CCC(C6)O7)oc45)cccc3c2c1` [NU5455], the inhibition (as a rule, the relative decrease from the control value, in per cent) at 1 µM was 6%.

Values taken from paper PMC6934184, “Selective DNA-PKcs inhibition extends the therapeutic index of localized radiotherapy and chemotherapy” (The Journal of Clinical Investigation, 2019).
